According to the supplement of paper PMC4862054:

test system: HCC1937; test: normalised response (% of control), CellTox Green; higher = less cell death (100 = DMSO, 0 = benzethonium chloride kill control); details: incubation time: 72 h
How it was run: (§1)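 Two readouts were taken after 72 h: CellTox Green fluorescence (485/520 nm) first, then CellTiter-Glo luminescence after 10 min at room temperature. Breast cancer cell lines had been seeded as 20 µl suspension into 384-well plates holding compound at 5 concentrations in 10-fold steps across a compound-specific 10,000-fold range. Each value is a normalised signal at a single concentration, with plates scaled to 0.1 % DMSO (100) and a positive kill control (0).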

Row | Compound | normalised response [%]
1 | FC(F)c1nc2ccccc2n1-c1nc(N2CCOCC2)nc(N2CCOCC2)n1 [ZSTK474] (100 nM) | 64.3
2 | CS(=O)(=O)OCCCCOS(C)(=O)=O [Busulfan] (1000 nM) | 107
3 | COC(=O)C[C@](O)(CCCC(C)(C)O)C(=O)O[C@@H]1C(OC)=C[C@]23CCCN2CCc2cc4c(cc2[C@H]13)OCO4 [Omacetaxine] (100 nM) | 124
4 | Cn1cnc2c(F)c(Nc3ccc(Br)cc3F)c(C(=O)NOCCO)cc21 [MEK-162] (10 nM) | 78.5
5 | C[C@@H]1CCN(C(=O)CC#N)C[C@@H]1N(C)c1ncnc2[nH]ccc12 [Tofacitinib] (50 nM) | 123
6 | COc1cccc2c1C(=O)c1c(O)c3c(c(O)c1C2=O)C[C@@](O)(C(C)=O)C[C@@H]3O[C@H]1C[C@H](N)[C@H](O)[C@H](C)O1 [Daunorubicin] (10 nM) | 106

test system: MDA-MB-231; test: as above; details: incubation time: 72 h
How it was run: as §1

Row | Compound | normalised response [%]
7 | CN1CCN(c2ccc3nc(-c4c(N)c5c(F)cccc5[nH]c4=O)[nH]c3c2)CC1 [Dovitinib] (100 nM) | 89.5
8 | COc1ccc(C2=N[C@@H](c3ccc(Cl)cc3)[C@@H](c3ccc(Cl)cc3)N2C(=O)N2CCNC(=O)C2)c(OC(C)C)c1 [Nutlin-3] (100 nM) | 100
9 | FC(F)c1nc2ccccc2n1-c1nc(N2CCOCC2)nc(N2CCOCC2)n1 [ZSTK474] (100 nM) | 110
10 | CS(=O)(=O)OCCCCOS(C)(=O)=O [Busulfan] (1000 nM) | 104
11 | COC(=O)C[C@](O)(CCCC(C)(C)O)C(=O)O[C@@H]1C(OC)=C[C@]23CCCN2CCc2cc4c(cc2[C@H]13)OCO4 [Omacetaxine] (100 nM) | 92.3
12 | Cn1cnc2c(F)c(Nc3ccc(Br)cc3F)c(C(=O)NOCCO)cc21 [MEK-162] (10 nM) | 81.9
13 | C[C@@H]1CCN(C(=O)CC#N)C[C@@H]1N(C)c1ncnc2[nH]ccc12 [Tofacitinib] (50 nM) | 104
14 | COc1cccc2c1C(=O)c1c(O)c3c(c(O)c1C2=O)C[C@@](O)(C(C)=O)C[C@@H]3O[C@H]1C[C@H](N)[C@H](O)[C@H](C)O1 [Daunorubicin] (10 nM) | 76

test system: BT-549; test: as above; details: incubation time: 72 h
How it was run: as §1

Row | Compound | normalised response [%]
15 | CN1CCN(c2ccc3nc(-c4c(N)c5c(F)cccc5[nH]c4=O)[nH]c3c2)CC1 [Dovitinib] (100 nM) | 95.3
16 | COc1ccc(C2=N[C@@H](c3ccc(Cl)cc3)[C@@H](c3ccc(Cl)cc3)N2C(=O)N2CCNC(=O)C2)c(OC(C)C)c1 [Nutlin-3] (100 nM) | 99
17 | FC(F)c1nc2ccccc2n1-c1nc(N2CCOCC2)nc(N2CCOCC2)n1 [ZSTK474] (100 nM) | 111
18 | CS(=O)(=O)OCCCCOS(C)(=O)=O [Busulfan] (1000 nM) | 96.5
19 | COC(=O)C[C@](O)(CCCC(C)(C)O)C(=O)O[C@@H]1C(OC)=C[C@]23CCCN2CCc2cc4c(cc2[C@H]13)OCO4 [Omacetaxine] (100 nM) | 103
20 | Cn1cnc2c(F)c(Nc3ccc(Br)cc3F)c(C(=O)NOCCO)cc21 [MEK-162] (10 nM) | 82.7
21 | C[C@@H]1CCN(C(=O)CC#N)C[C@@H]1N(C)c1ncnc2[nH]ccc12 [Tofacitinib] (50 nM) | 94.2
22 | COc1cccc2c1C(=O)c1c(O)c3c(c(O)c1C2=O)C[C@@](O)(C(C)=O)C[C@@H]3O[C@H]1C[C@H](N)[C@H](O)[C@H](C)O1 [Daunorubicin] (10 nM) | 104

test system: HCC1143; test: as above; details: incubation time: 72 h
How it was run: as §1

Row | Compound | normalised response [%]
23 | CN1CCN(c2ccc3nc(-c4c(N)c5c(F)cccc5[nH]c4=O)[nH]c3c2)CC1 [Dovitinib] (100 nM) | 97.1
24 | COc1ccc(C2=N[C@@H](c3ccc(Cl)cc3)[C@@H](c3ccc(Cl)cc3)N2C(=O)N2CCNC(=O)C2)c(OC(C)C)c1 [Nutlin-3] (100 nM) | 109
25 | FC(F)c1nc2ccccc2n1-c1nc(N2CCOCC2)nc(N2CCOCC2)n1 [ZSTK474] (100 nM) | 115
26 | CS(=O)(=O)OCCCCOS(C)(=O)=O [Busulfan] (1000 nM) | 97.8
27 | COC(=O)C[C@](O)(CCCC(C)(C)O)C(=O)O[C@@H]1C(OC)=C[C@]23CCCN2CCc2cc4c(cc2[C@H]13)OCO4 [Omacetaxine] (100 nM) | 72.7
28 | Cn1cnc2c(F)c(Nc3ccc(Br)cc3F)c(C(=O)NOCCO)cc21 [MEK-162] (10 nM) | 73
29 | C[C@@H]1CCN(C(=O)CC#N)C[C@@H]1N(C)c1ncnc2[nH]ccc12 [Tofacitinib] (50 nM) | 104
30 | COc1cccc2c1C(=O)c1c(O)c3c(c(O)c1C2=O)C[C@@](O)(C(C)=O)C[C@@H]3O[C@H]1C[C@H](N)[C@H](O)[C@H](C)O1 [Daunorubicin] (10 nM) | 104

test system: MDA-MB-436; test: as above; details: incubation time: 72 h
How it was run: as §1

Row | Compound | normalised response [%]
31 | CN1CCN(c2ccc3nc(-c4c(N)c5c(F)cccc5[nH]c4=O)[nH]c3c2)CC1 [Dovitinib] (100 nM) | 72.4
32 | COc1ccc(C2=N[C@@H](c3ccc(Cl)cc3)[C@@H](c3ccc(Cl)cc3)N2C(=O)N2CCNC(=O)C2)c(OC(C)C)c1 [Nutlin-3] (100 nM) | 64
33 | FC(F)c1nc2ccccc2n1-c1nc(N2CCOCC2)nc(N2CCOCC2)n1 [ZSTK474] (100 nM) | 101
34 | CS(=O)(=O)OCCCCOS(C)(=O)=O [Busulfan] (1000 nM) | 90.6
35 | COC(=O)C[C@](O)(CCCC(C)(C)O)C(=O)O[C@@H]1C(OC)=C[C@]23CCCN2CCc2cc4c(cc2[C@H]13)OCO4 [Omacetaxine] (100 nM) | 77.6
36 | Cn1cnc2c(F)c(Nc3ccc(Br)cc3F)c(C(=O)NOCCO)cc21 [MEK-162] (10 nM) | 99.8
37 | C[C@@H]1CCN(C(=O)CC#N)C[C@@H]1N(C)c1ncnc2[nH]ccc12 [Tofacitinib] (50 nM) | 97.8
38 | COc1cccc2c1C(=O)c1c(O)c3c(c(O)c1C2=O)C[C@@](O)(C(C)=O)C[C@@H]3O[C@H]1C[C@H](N)[C@H](O)[C@H](C)O1 [Daunorubicin] (10 nM) | 93.4

test system: HCC1599; test: as above; details: incubation time: 72 h
How it was run: as §1

Row | Compound | normalised response [%]
39 | CN1CCN(c2ccc3nc(-c4c(N)c5c(F)cccc5[nH]c4=O)[nH]c3c2)CC1 [Dovitinib] (100 nM) | 108
40 | COc1ccc(C2=N[C@@H](c3ccc(Cl)cc3)[C@@H](c3ccc(Cl)cc3)N2C(=O)N2CCNC(=O)C2)c(OC(C)C)c1 [Nutlin-3] (100 nM) | 102
41 | FC(F)c1nc2ccccc2n1-c1nc(N2CCOCC2)nc(N2CCOCC2)n1 [ZSTK474] (100 nM) | 101
42 | CS(=O)(=O)OCCCCOS(C)(=O)=O [Busulfan] (1000 nM) | 103
43 | COC(=O)C[C@](O)(CCCC(C)(C)O)C(=O)O[C@@H]1C(OC)=C[C@]23CCCN2CCc2cc4c(cc2[C@H]13)OCO4 [Omacetaxine] (100 nM) | 112
44 | Cn1cnc2c(F)c(Nc3ccc(Br)cc3F)c(C(=O)NOCCO)cc21 [MEK-162] (10 nM) | 93
45 | C[C@@H]1CCN(C(=O)CC#N)C[C@@H]1N(C)c1ncnc2[nH]ccc12 [Tofacitinib] (50 nM) | 116
46 | COc1cccc2c1C(=O)c1c(O)c3c(c(O)c1C2=O)C[C@@](O)(C(C)=O)C[C@@H]3O[C@H]1C[C@H](N)[C@H](O)[C@H](C)O1 [Daunorubicin] (10 nM) | 98.9

test system: MCF-10A; test: as above; details: incubation time: 72 h
How it was run: as §1

Row | Compound | normalised response [%]
47 | CN1CCN(c2ccc3nc(-c4c(N)c5c(F)cccc5[nH]c4=O)[nH]c3c2)CC1 [Dovitinib] (100 nM) | 102
48 | COc1ccc(C2=N[C@@H](c3ccc(Cl)cc3)[C@@H](c3ccc(Cl)cc3)N2C(=O)N2CCNC(=O)C2)c(OC(C)C)c1 [Nutlin-3] (100 nM) | 103
49 | FC(F)c1nc2ccccc2n1-c1nc(N2CCOCC2)nc(N2CCOCC2)n1 [ZSTK474] (100 nM) | 85
50 | CS(=O)(=O)OCCCCOS(C)(=O)=O [Busulfan] (1000 nM) | 59.8
51 | COC(=O)C[C@](O)(CCCC(C)(C)O)C(=O)O[C@@H]1C(OC)=C[C@]23CCCN2CCc2cc4c(cc2[C@H]13)OCO4 [Omacetaxine] (100 nM) | 97.1
52 | Cn1cnc2c(F)c(Nc3ccc(Br)cc3F)c(C(=O)NOCCO)cc21 [MEK-162] (10 nM) | 68.5
53 | C[C@@H]1CCN(C(=O)CC#N)C[C@@H]1N(C)c1ncnc2[nH]ccc12 [Tofacitinib] (50 nM) | 105
54 | COc1cccc2c1C(=O)c1c(O)c3c(c(O)c1C2=O)C[C@@](O)(C(C)=O)C[C@@H]3O[C@H]1C[C@H](N)[C@H](O)[C@H](C)O1 [Daunorubicin] (10 nM) | 104

test system: DU-4475; test: as above; details: incubation time: 72 h
How it was run: as §1

Row | Compound | normalised response [%]
55 | CN1CCN(c2ccc3nc(-c4c(N)c5c(F)cccc5[nH]c4=O)[nH]c3c2)CC1 [Dovitinib] (100 nM) | 100
56 | COc1ccc(C2=N[C@@H](c3ccc(Cl)cc3)[C@@H](c3ccc(Cl)cc3)N2C(=O)N2CCNC(=O)C2)c(OC(C)C)c1 [Nutlin-3] (100 nM) | 102
57 | FC(F)c1nc2ccccc2n1-c1nc(N2CCOCC2)nc(N2CCOCC2)n1 [ZSTK474] (100 nM) | 105
58 | CS(=O)(=O)OCCCCOS(C)(=O)=O [Busulfan] (1000 nM) | 101
59 | COC(=O)C[C@](O)(CCCC(C)(C)O)C(=O)O[C@@H]1C(OC)=C[C@]23CCCN2CCc2cc4c(cc2[C@H]13)OCO4 [Omacetaxine] (100 nM) | 97.5
60 | Cn1cnc2c(F)c(Nc3ccc(Br)cc3F)c(C(=O)NOCCO)cc21 [MEK-162] (10 nM) | 97.6
61 | C[C@@H]1CCN(C(=O)CC#N)C[C@@H]1N(C)c1ncnc2[nH]ccc12 [Tofacitinib] (50 nM) | 102
62 | COc1cccc2c1C(=O)c1c(O)c3c(c(O)c1C2=O)C[C@@](O)(C(C)=O)C[C@@H]3O[C@H]1C[C@H](N)[C@H](O)[C@H](C)O1 [Daunorubicin] (10 nM) | 103

test system: Hs578T; test: as above; details: incubation time: 72 h
How it was run: as §1

Row | Compound | normalised response [%]
63 | CN1CCN(c2ccc3nc(-c4c(N)c5c(F)cccc5[nH]c4=O)[nH]c3c2)CC1 [Dovitinib] (100 nM) | 93.3
64 | COc1ccc(C2=N[C@@H](c3ccc(Cl)cc3)[C@@H](c3ccc(Cl)cc3)N2C(=O)N2CCNC(=O)C2)c(OC(C)C)c1 [Nutlin-3] (100 nM) | 101
65 | FC(F)c1nc2ccccc2n1-c1nc(N2CCOCC2)nc(N2CCOCC2)n1 [ZSTK474] (100 nM) | 102
66 | CS(=O)(=O)OCCCCOS(C)(=O)=O [Busulfan] (1000 nM) | 105
67 | COC(=O)C[C@](O)(CCCC(C)(C)O)C(=O)O[C@@H]1C(OC)=C[C@]23CCCN2CCc2cc4c(cc2[C@H]13)OCO4 [Omacetaxine] (100 nM) | 38.3
68 | Cn1cnc2c(F)c(Nc3ccc(Br)cc3F)c(C(=O)NOCCO)cc21 [MEK-162] (10 nM) | 108
69 | C[C@@H]1CCN(C(=O)CC#N)C[C@@H]1N(C)c1ncnc2[nH]ccc12 [Tofacitinib] (50 nM) | 93.4
70 | COc1cccc2c1C(=O)c1c(O)c3c(c(O)c1C2=O)C[C@@](O)(C(C)=O)C[C@@H]3O[C@H]1C[C@H](N)[C@H](O)[C@H](C)O1 [Daunorubicin] (10 nM) | 111

test system: CAL-120; test: normalised response (% of control), CellTiter-Glo; higher = more viable cells (100 = DMSO, 0 = benzethonium chloride kill control); details: incubation time: 72 h
Procedure: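 DSRT, 72 h incubation, CellTox Green / CellTiter-Glo readout. Signal is normalised to DMSO and benzethonium chloride controls. Value is the normalised response at dose 3.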

Row | Compound | normalised response [%]
71 | CN1CCN(c2ccc3nc(-c4c(N)c5c(F)cccc5[nH]c4=O)[nH]c3c2)CC1 [Dovitinib] (100 nM) | 93.9
72 | COc1ccc(C2=N[C@@H](c3ccc(Cl)cc3)[C@@H](c3ccc(Cl)cc3)N2C(=O)N2CCNC(=O)C2)c(OC(C)C)c1 [Nutlin-3] (100 nM) | 99.5
73 | FC(F)c1nc2ccccc2n1-c1nc(N2CCOCC2)nc(N2CCOCC2)n1 [ZSTK474] (100 nM) | 101
74 | CS(=O)(=O)OCCCCOS(C)(=O)=O [Busulfan] (1000 nM) | 102
